According to paper PMC8388771, “Cationic Peptidomimetic Amphiphiles Having a N-Aryl- or N-Naphthyl-1,2,3-Triazole Core Structure Targeting Clostridioides (Clostridium) difficile: Synthesis, Antibacterial Evaluation, and an In Vivo C. difficile Infection Model” (Antibiotics, 2021):
In brackets after ≈: the same amount, converted by molar mass.

Experiments:
[1] = test system: E. coli ATCC 25922; assay: CO-ADD MIC assay, E. coli ATCC 25922; assay type: cell-based; settings: Escherichia coli, ATCC25922, Table S1
From the text: (§1) The N-arytriazole and N-naphthyltriazole peptidomimetics were subjected to antimicrobial screening. […] Vancomycin, colistin, fluconazole, and tamoxifen were used as positive controls (see Table 1 for details).
(§2) Secondary screening (MRSA and Gram-negative bacteria) and cytotoxicity assay–performed by the Community for Open Antimicrobial Drug Discovery (CO-ADD). Samples were provided to CO-ADD [29] for antimicrobial screening by whole cell growth inhibition assays.
(§3) Bacterial Inhibition–MIC Assay. These were performed as described previously.

[2] = test system: C. difficile 132 (RT027); assay: Primary MIC assay, C. difficile 132 (RT027); assay type: cell-based, Clostridioides difficile; settings: Clostridioides difficile; Table 1; read-out: MIC C. difficile 132 (RT027)
Protocol: as §1
(§4) Primary screening (Gram-positive bacteria). Primary MIC assays were performed as described by the Clinical and Laboratory Standards Institute for aerobic and anaerobic bacteria. MIC values for vancomycin were within acceptable QC ranges.

[3] = Cytotoxicity (CC50) assay by CO-ADD; assay type: cell-based, human; settings: human, HEK293 cells (ATCC CRL-1573); Table 1; cytotoxicity on HEK293 cells, tested at ≤32 µg/mL
From the text: as §1, §2
Cytotoxicity Assay. These were performed as described previously.

[4] = test system: Cryptococcus neoformans var. grubii ATCC 208821; assay: CO-ADD MIC assay, C. neoformans var. grubii ATCC 208821; assay type: cell-based; settings: Cryptococcus neoformans, ATCC208821, Table S1
From the text: as §1, §2

[5] = test system: E. faecalis ATCC 29212; assay: Primary MIC assay, E. faecalis ATCC 29212; assay type: cell-based, Enterococcus faecalis; settings: Enterococcus faecalis, ATCC29212; Table 1; read-out: MIC E. faecalis ATCC 29212
Protocol: as §1, §4

[6] = test system: C. albicans ATCC 90028; assay: CO-ADD MIC assay, C. albicans ATCC 90028; assay type: cell-based; settings: Candida albicans, ATCC90028, Table S1
From the text: as §1, §2

[7] = test system: K. pneumoniae ATCC 700603; assay: CO-ADD MIC assay, K. pneumoniae ATCC 700603; assay type: cell-based; settings: Klebsiella pneumoniae, ATCC700603, Table S1, multi-drug resistant
From the text: as §1, §2, §3

[8] = test system: P. aeruginosa ATCC 27853; assay: CO-ADD MIC assay, P. aeruginosa ATCC 27853; assay type: cell-based; settings: Pseudomonas aeruginosa, ATCC27853, Table S1
From the text: as §1, §2, §3

[9] = test system: A. baumannii ATCC 19606; assay: CO-ADD MIC assay, A. baumannii ATCC 19606; assay type: cell-based; settings: Acinetobacter baumannii, ATCC19606, Table S1
From the text: as §1, §2, §3

[10] = test system: S. aureus ATCC 29213; assay: Primary MIC assay, S. aureus ATCC 29213; assay type: cell-based; settings: Staphylococcus aureus, ATCC29213; Table 1; read-out: MIC S. aureus ATCC 29213
Protocol: as §1, §4

[11] = test system: S. pneumoniae ATCC 49619; assay: Primary MIC assay, S. pneumoniae ATCC 49619; assay type: cell-based, Streptococcus pneumoniae; settings: Streptococcus pneumoniae, ATCC49619; Table 1; read-out: MIC S. pneumoniae ATCC 49619
Protocol: as §1, §4

[12] = test system: human erythrocytes; assay: Hemolysis assay, HC50 determination; assay type: cell-based
Protocol: Hemolysis assay (human erythrocytes)–HC50 determination. These were performed as described previously.

[13] = test system: S. aureus NCTC 10442; assay: Primary MIC assay, S. aureus NCTC 10442 (MRSA); assay type: cell-based; settings: Staphylococcus aureus; Table 1; MRSA; read-out: MIC S. aureus NCTC 10442
Protocol: as §1, §4

[14] = test system: C. difficile ATCC 700057; assay: Primary MIC assay, C. difficile ATCC 700057; assay type: cell-based, Clostridioides difficile; settings: Clostridioides difficile, ATCC700057; Table 1; read-out: MIC C. difficile ATCC 700057
Protocol: as §1, §4

[15] = test system: E. coli ATCC 25922; assay: Primary MIC assay, E. coli ATCC 25922; assay type: cell-based; settings: Escherichia coli, ATCC25922; Table 1; read-out: MIC E. coli ATCC 25922
[16] = test system: S. aureus ATCC 43300; assay: CO-ADD MIC assay, S. aureus ATCC 43300 (MRSA); assay type: cell-based; settings: Staphylococcus aureus, Table S1; MRSA; CO-ADD; read-out: MIC S. aureus ATCC 43300
From the text: as §1, §2, §3

[17] = Table 1, lysis of human erythrocytes
[18] = Table S1, footnote says lysis of sheep erythrocytes

| SMILES | MIC [1] [µg/mL] | MIC [2] [µg/mL] | CC50 [3] [µg/mL] | MIC [4] [µg/mL] | MIC [5] [µg/mL] | MIC [6] [µg/mL] | MIC [7] [µg/mL] | MIC [8] [µg/mL] | MIC [9] [µg/mL] | MIC [10] [µg/mL] | MIC [11] [µg/mL] | HC50 [12, 17] [µg/mL] | HC50 [12, 18] [µg/mL] | MIC [13] [µg/mL] | MIC [14] [µg/mL] | MIC [15] [µg/mL] | MIC [16] [µg/mL] |
| --- | --- | --- | --- | --- | --- | --- | --- | --- | --- | --- | --- | --- | --- | --- | --- | --- | --- |
| CC(C)CCc1cn(-c2ccccc2OCC(=O)N[C@H](CCCNC(=N)N)Cn2cc(C3CCCCC3)nn2)nn1 [Compound 10] | > 32 | 64 (≈ 113 µM) | > 32 | 32 (≈ 56.7 µM) | 32 (≈ 56.7 µM) | > 32 | > 32 | > 32 | > 32 | 32 (≈ 56.7 µM) | 16 (≈ 28.3 µM) | >32 | > 32 | 32 (≈ 56.7 µM) | 32 (≈ 56.7 µM) | 128 (≈ 227 µM) | 32 (≈ 56.7 µM) |
| CC(C)CCc1cn(-c2ccccc2OCC(=O)N[C@H](CCCNC(=N)N)Cn2cc(C3CCCC3)nn2)nn1.Cl [Compound 11] | > 32 | 64 | > 32 | 32 | 32 | > 32 | > 32 | > 32 | > 32 | 32 | 16 | >32 | > 32 | 32 | 32 | 128 | 32 |
| CC(C)CCc1cn(-c2ccccc2OCC(=O)N[C@H](CCCNC(=N)N)Cn2cc(-c3ccc(F)cc3)nn2)nn1.Cl [Compound 12] | > 32 | 64 | > 32 | 32 | 32 | > 32 | > 32 | > 32 | > 32 | 32 | 16 | >32 | > 32 | 32 | 32 | 128 | 32 |
| CC(C)CCc1cn(-c2ccccc2OCC(=O)N[C@H](CCCNC(=N)N)Cn2cc(Cc3ccccc3)nn2)nn1.Cl [Compound 13] | > 32 | 64 | > 32 | 32 | 32 | > 32 | > 32 | > 32 | > 32 | 32 | 16 | >32 | > 32 | 32 | 32 | 128 | 32 |
| CC(C)CCc1cnnn1-c1ccccc1OCC(=O)N[C@H](CCCNC(=N)N)Cn1cc(C2CCCCC2)nn1 [Compound 14] | > 32 | 128 (≈ 227 µM) | > 32 | 32 (≈ 56.7 µM) | 32 (≈ 56.7 µM) | > 32 | > 32 | > 32 | > 32 | 32 (≈ 56.7 µM) | 32 (≈ 56.7 µM) | >32 | > 32 | 32 (≈ 56.7 µM) | 128 (≈ 227 µM) | > 128 | 32 (≈ 56.7 µM) |
| CC(C)CCc1cnnn1-c1ccccc1OCC(=O)N[C@H](CCCNC(=N)N)Cn1cc(CC2CCCCC2)nn1.Cl [Compound 15] | > 32 | 64 | > 32 | 32 | 16 | > 32 | > 32 | > 32 | > 32 | 16 | 16 | >32 | > 32 | 16 | 64 | 128 | 32 |
| CC(C)CCc1cnnn1-c1ccccc1OCC(=O)N[C@H](CCCNC(=N)N)Cn1cc(Cc2ccccc2)nn1.Cl [Compound 16] | > 32 | 32 | > 32 | 32 | 32 | > 32 | > 32 | > 32 | > 32 | 32 | 32 | >32 | > 32 | 32 | 32 | > 128 | 32 |
